Test results: PubChem BioAssay AID489040 (Sanford-Burnham Center for Chemical Genomics, 2010)
Active and inactive are the calls of the source.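 How the source made its calls: active means mean half-maximal activating concentration from the dose-response fit at or below a set limit; inactive means the rest.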

molecular target: CHO-XBP1 luciferase reporter, IRE1-XBP1 UPR activation; assay: XBP1 luciferase reporter activation – CHO-XBP1 cells, luminescence, counter-screen for apoptotic UPR arm activators, dose response (AID 489040);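 further: reporter read after six hours of compound exposure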

Question: `Oc1ccc(/C=N/Nc2ccc(C(F)(F)F)cn2)cc1O` was tested. Which EC50 did it give?
Answer: > 80 µM (inactive)

Question: Which EC50 does the source give for `COc1cc(/C=C(/C#N)c2nc3ccccc3[nH]2)ccc1OCC(=O)Nc1ccccc1C(C)C` here?
Answer: > 80 µM (inactive)

Question: Which EC50 does the source give for `Oc1ccc(/C=N/N2CCCCC2)cc1O` here?
Answer: > 80 µM (inactive)

Question: For `CCOC(=O)c1c(C)oc2c1c(C(c1cccnc1)N1CCCCC1)c(O)c1ccccc12` (configuration not stated), which EC50 is on record?
Answer: > 80 µM (inactive)

Question: How did the EC50 turn out when `Cc1cccc(-n2ncc(Cl)c(Cl)c2=O)c1` was run?
Answer: > 80 µM (inactive)

Question: How did the EC50 turn out when `Cc1cc(SCC(=O)N/N=C/c2ccc(O)c(O)c2)nc2ccccc12` was run?
Answer: inactive

Question: How did the EC50 turn out when `O=S(=O)(Nc1cccc2cccnc12)c1ccccc1` was run?
Answer: > 80 µM (inactive)

Question: Which EC50 does the source give for `Cc1ccc(-c2nc(N/N=C/c3cccc([N+](=O)[O-])c3)c3ccccc3n2)cc1` here?
Answer: > 80 µM (inactive)

Question: How did the EC50 turn out when `O=C1Nc2ccccc2/C1=C\C(=O)c1ccccc1` was run?
Answer: > 80 µM (inactive)

Question: With `CCOC(=O)/C=c1\s/c(=C\c2ccc3cc(OC)ccc3c2)c(=O)n1CC(=O)NCC1CCCO1` (configuration not stated) as the compound, how does the EC50 read?
Answer: 17.4 µM

Question: `CCOC(=O)C(=Cc1ccc(OCc2ccc([N+](=O)[O-])cc2)c(OC)c1)C(=O)OCC` was tested. Which EC50 did it give?
Answer: > 80 µM (inactive)

Question: `CCn1c(-c2ccccc2)c(C(=O)CCl)c2ccccc21` was tested. Which EC50 did it give?
Answer: > 80 µM (inactive)

Question: Which EC50 does the source give for `C/C(=N/NC(=O)c1ccc(C(C)(C)C)cc1)c1ccccn1` here?
Answer: > 80 µM (inactive)

Question: With `O=C(Cn1cc(/C=C\[N+](=O)[O-])c2ccccc21)Nc1ccccc1` as the compound, how does the EC50 read?
Answer: > 80 µM (inactive)

Question: Which EC50 does the source give for `COc1cc(/C=C2\C(=O)ON=C2c2ccc(Cl)cc2)ccc1O` here?
Answer: > 80 µM (inactive)

Question: For `O=C(C[C@H]1C[C@H](C(=O)N2CCCCC2)[C@@]2(CCc3ccccc3)c3[nH]c4ccc(Cl)cc4c3CCN2C1=O)NCCC1=CCCCC1`, which EC50 is on record?
Answer: inactive

Question: How did the EC50 turn out when `Cc1ccc(S(=O)(=O)Nc2cccc3cccnc23)c([N+](=O)[O-])c1` was run?
Answer: > 80 µM (inactive)

Question: With `Cc1cc(NC(=O)CCS(=O)(=O)c2nc(-c3ccccc3)cc(C(F)(F)F)n2)no1` as the compound, how does the EC50 read?
Answer: > 80 µM (inactive)

Question: `C[C@@H]1C[C@@H]2O[C@H]2/C=C\C=C\C(=O)Cc2c(Cl)c(O)cc(O)c2C(=O)O1` was tested. Which EC50 did it give?
Answer: > 80 µM (inactive)

Question: `CC1=CC(=O)C(C(C)C)=C/C1=N/OC(=O)c1cccc([N+](=O)[O-])c1` was tested. Which EC50 did it give?
Answer: > 80 µM (inactive)

Question: How did the EC50 turn out when `Cc1cccc(CSc2cccc3cccnc23)c1` was run?
Answer: > 80 µM (inactive)

Question: `CCn1c(O)c(C2=c3ccccc3=NC2=O)c2cc(Br)ccc21` was tested. Which EC50 did it give?
Answer: > 80 µM (inactive)

Question: For `N=c1c(-c2nc3ccccc3[nH]2)cc(C(=O)c2ccco2)nn1-c1ccccc1`, which EC50 is on record?
Answer: > 80 µM (inactive)

Question: With `O=C(N/N=C/c1ccccn1)c1cc(-c2ccc(Br)cc2)nc2ccccc12` as the compound, how does the EC50 read?
Answer: > 80 µM (inactive)

Question: `Cc1cc(C(=O)CCl)c(C)n1CCc1ccc(F)cc1` was tested. Which EC50 did it give?
Answer: > 80 µM (inactive)

Question: Which EC50 does the source give for `O=C(Oc1c(CN2CCOCC2)cc(Cl)c2cccnc12)c1ccccc1F` here?
Answer: > 80 µM (inactive)

Question: Which EC50 does the source give for `Cc1[nH]c2c(C)cccc2c1CCNC(=O)c1ccc2c(c1[N+](=O)[O-])C(=O)c1ccccc1C2=O` here?
Answer: > 80 µM (inactive)

Question: How did the EC50 turn out when `S=C1SCN(CC2CC2)CN1CC1CC1` was run?
Answer: > 80 µM (inactive)

Question: Which EC50 does the source give for `Cc1ccc(C)c(NC(=O)/C(C#N)=C/c2cn(CC(=O)NCc3ccco3)c3ccccc23)c1` here?
Answer: 6.33 µM

Question: How did the EC50 turn out when `COc1cc(/C=C/C(=O)c2ccc3c(c2)OCCO3)cc(Br)c1OCC(=O)N(C)C` was run?
Answer: > 80 µM (inactive)

Question: With `Cc1ccc(-c2nn(-c3ccccc3)cc2C=C2C(=O)CC(C)(C)CC2=O)cc1` as the compound, how does the EC50 read?
Answer: > 80 µM (inactive)

Question: `C[C@@H]1CN([C@H](C)CO)C(=O)c2cc(NC(=O)Nc3ccc(C(F)(F)F)cc3)ccc2O[C@H]1CN(C)Cc1ccc(Cl)c(Cl)c1` was tested. Which EC50 did it give?
Answer: > 80 µM (inactive)

Question: With `Cc1ccc(-c2nc(NC(=O)c3nn(C)cc3[N+](=O)[O-])sc2C)cc1C` as the compound, how does the EC50 read?
Answer: > 80 µM (inactive)

Question: Which EC50 does the source give for `CCOC(=O)C(=Cc1ccc(-n2cncn2)cc1)C(=O)OCC` here?
Answer: > 80 µM (inactive)

Question: `COc1ccccc1-c1cc(C(F)(F)F)nc(S(=O)(=O)CCCC(=O)NCc2ccc(F)cc2)n1` was tested. Which EC50 did it give?
Answer: > 80 µM (inactive)

Question: `Cc1cccc(OCCN2CSC(=S)N(C)C2)c1` was tested. Which EC50 did it give?
Answer: > 80 µM (inactive)

Question: Which EC50 does the source give for `Oc1cc(-c2cccnc2)cc2cccnc12` here?
Answer: inactive
